Source: patent US11279694B2, “Alvocidib prodrugs and their use as protein kinase inhibitors” (Sumitomo Dainippon Pharma Oncology, Inc., priority 2016, dated 2022)
Where “and” joins values, the source holds several entries; their conditions need not be identical. Equal values may be shown once.

How the values were obtained:
[1] = Pharmacokinetic testing of representative compounds in CD-1 mice, oral dosing; format: in vivo; conditions: mean ± SD; for AUC0→∞, analyte: prodrug compound / AUCLast, analyte: prodrug compound / half-life / Tmax: dosed orally 10 mg/kg, analyte = dosed prodrug, nd = none detected; for half-life / Tmax: mouse, in vivo, po; for half-life: read-out: Half Life, analyte: prodrug compound (converted); for Tmax: read-out: Tmax, analyte: prodrug compound
Description: Representative compounds were tested for pharmacokinetic activity in CD-1 mice. Mice were dosed orally with 10 mg/kg of each representative compound as well as alvocidib.
The results in Table 3 show the tested compounds afforded high exposure of released alvocidib and no apparent exposure of the prodrug compounds. Additional results are shown in Tables 4 and 5, including use of alvocidib.HCl as a control: […]

[2] = Comparison of exposure of released alvocidib to parent prodrug exposure; format: in vivo; conditions: expressed as a percentage of the released alvocidib exposure
Description: Representative prodrug compounds (i.e., Compounds 10, 21-28 and 29-31) were tested to determine the resultant exposure of released alvocidib as well exposure of the parent compound. The exposure of the parent prodrug is expressed as a percentage of the released alvocidib exposure (% F). The released alvocidib exposure (% F) for each prodrug was calculated as a percentage of the exposure of alvocidib, dosed orally at an equivalent dose.

[3] = labelled compound dosed orally 10 mg/kg, analyte = alvocidib (released from prodrug, or alvocidib.HCl control), hydrochloride, 10 mg/kg

| SMILES | AUC0→∞, analyte: prodrug compound [1] | AUCLast, analyte: prodrug compound [1] | half-life [1] | Tmax [1] | exposure of the parent prodrug [2] | also measured |
| --- | --- | --- | --- | --- | --- | --- |
| CN1CC[C@H](c2c(O)cc(O)c3c(=O)cc(-c4ccccc4Cl)oc23)[C@H](O)C1.Cl [Alvocidib•HCl, 2-(2-chlorophenyl)-5,7-dihydroxy-8-[(3S,4R)-3-hydroxy-1-methylpiperidin-4-yl]-4H-chromen-4-one hydrochloride, reference compound] |  |  |  |  |  | AUC0→∞, analyte: Alvocidib [1, 3]: 10,933.3 ± 4498.0 ng · h/mL or ng · h/G and 10,603.8 ± 1968.4 ng · h/mL or ng · h/G; AUCLast, analyte: Alvocidib [1, 3]: 7275.2 ± 2572.2 ng · h/mL or ng · h/G and 9952.7 ± 1769.5 ng · h/mL or ng · h/G |
| CCOC(=O)O[C@@H]1CN(C)CC[C@@H]1c1c(O)cc(O)c2c(=O)cc(-c3ccccc3Cl)oc12 [Compound 10, (3S, 4R)-4-(2-(2-chlorophenyl)-5,7-dihydroxy-4-oxo-4H-chromen-8-yl)-1-methylpiperidin-3-yl ethyl carbonate] | 646.8 ± 219.4 ng · h/mL or ng · h/G | 405.4 ± 215.6 ng · h/mL or ng · h/G | 3.8 ± 0.6 h | 0.25 h | 2% |  |
| COC(=O)O[C@@H]1CN(C)CC[C@@H]1c1c(O)cc(O)c2c(=O)cc(-c3ccccc3Cl)oc12 [Compound 11, (3S, 4R)-4-(2-(2-chlorophenyl)-5,7-dihydroxy-4-oxo-4H-chromen-8-yl)-1-methylpiperidin-3-yl methyl carbonate] | 275.1 ± 24.1 ng · h/mL or ng · h/G | 238.3 ± 43.9 ng · h/mL or ng · h/G | 4.2 ± 0.1 h | 0.25 h |  |  |
| CCNC(=O)O[C@@H]1CN(C)CC[C@@H]1c1c(O)cc(O)c2c(=O)cc(-c3ccccc3Cl)oc12 [Compound 12, (3S, 4R)-4-(2-(2-chlorophenyl)-5,7-dihydroxy-4-oxo-4H-chromen-8-yl)-1-methylpiperidin-3-yl ethylcarbamate] | 281.4 ± 28.3 ng · h/mL or ng · h/G | 262.2 ± 27.8 ng · h/mL or ng · h/G | 2.1 ± 0.1 h | 0.42 ± 0.1 h |  |  |
| CNC(=O)O[C@@H]1CN(C)CC[C@@H]1c1c(O)cc(O)c2c(=O)cc(-c3ccccc3Cl)oc12 [Compound 13, (3S, 4R)-4-(2-(2-chlorophenyl)-5,7-dihydroxy-4-oxo-4H-chromen-8-yl)-1-methylpiperidin-3-yl methylcarbamate] | 620.2 ± 147.7 ng · h/mL or ng · h/G | 594.7 ± 143.7 ng · h/mL or ng · h/G | 2 ± 0.8 h | 0.4 ± 0.1 h |  |  |

The next lines start with results.

| AUC0→∞, analyte: prodrug compound [1] | AUCLast, analyte: prodrug compound [1] | half-life [1] | Tmax [1] | exposure of the parent prodrug [2] | SMILES | also measured |
| --- | --- | --- | --- | --- | --- | --- |
|  |  |  |  | 3% | CC(C)C(=O)O[C@@H]1CN(C)CC[C@@H]1c1c(O)cc(O)c2c(=O)cc(-c3ccccc3Cl)oc12 [Compound 22, (3S, 4R)-4-(2-(2-chlorophenyl)-5,7-dihydroxy-4-oxo-4H-chromen-8-yl)-1-methylpiperidin-3-yl isobutyrate] |  |
|  |  |  |  | low exposure | C[C@H](N)C(=O)O[C@@H]1CN(C)CC[C@@H]1c1c(O)cc(O)c2c(=O)cc(-c3ccccc3Cl)oc12 [Compound 27, (3S, 4R)-4-(2-(2-chlorophenyl)-5,7-dihydroxy-4-oxo-4H-chromen-8-yl)-1-methylpiperidin-3-yl L-alaninate] |  |
|  |  |  |  | not detected | CN1CC[C@H](c2c(O)cc(O)c3c(=O)cc(-c4ccccc4Cl)oc23)[C@H](OC(=O)CN)C1 [Compound 28, (3S, 4R)-4-(2-(2-chlorophenyl)-5,7-dihydroxy-4-oxo-4H-chromen-8-yl)-1-methylpiperidin-3-yl glycinate] |  |
|  |  |  |  | not detected | CCCCCCC(=O)O[C@@H]1CN(C)CC[C@@H]1c1c(O)cc(O)c2c(=O)cc(-c3ccccc3Cl)oc12 [Compound 31, (3S, 4R)-4-(2-(2-chlorophenyl)-5,7-dihydroxy-4-oxo-4H-chromen-8-yl)-1-methylpiperidin-3-yl heptanoate] |  |
|  |  |  |  | not detected | CCCCC(=O)O[C@@H]1CN(C)CC[C@@H]1c1c(O)cc(O)c2c(=O)cc(-c3ccccc3Cl)oc12 [Compound 32, (3S, 4R)-4-(2-(2-chlorophenyl)-5,7-dihydroxy-4-oxo-4H-chromen-8-yl)-1-methylpiperidin-3-yl pentanoate] |  |
